Patent publication US6887889B2 (Pharmacopeia Drug Discovery, Inc., priority 2001, dated 2005)

Molecular target: T1, hMCHR (Homo sapiens, UniProt Q99705)
T1 construct: host or cells: CHO (Chinese hamster ovary) cells, membranes
Assay: MCH Assay PCOP Protocol: [125I]-MCH binding to hMCHR-CHO membranes, WGA-SPA beads
Conditions: hMCHR-CHO overexpressing membranes, 0.5 nM [125I]-MCH, 2 hours incubation
Method: A reaction mixture of 10 μg hMCHR-CHO overexpressing membranes (from Receptor Biology, Inc., Beltville, Md., or internally produced) and 100 μg/well WGA-SPA beads (from Amersham Pharmacia Biotech, Inc., Piscataway, N.J.)/100 μL was prepared in MCHR assay buffer (25 mM HEPES, pH 7.4, 10 mM NaCl, 10 mM MgCl2, 5 mM MnCl2, 0.1%BSA). […] The assay plates were shaken for 5 minutes on a plate shaker, then incubated for 2 hours before cpm/well were determined in a Microbeta Trilux counter (from Perkin Elmer Wallac, Inc., Gaithersburg, Md.).

T1 sequence (Q99705 whole entry): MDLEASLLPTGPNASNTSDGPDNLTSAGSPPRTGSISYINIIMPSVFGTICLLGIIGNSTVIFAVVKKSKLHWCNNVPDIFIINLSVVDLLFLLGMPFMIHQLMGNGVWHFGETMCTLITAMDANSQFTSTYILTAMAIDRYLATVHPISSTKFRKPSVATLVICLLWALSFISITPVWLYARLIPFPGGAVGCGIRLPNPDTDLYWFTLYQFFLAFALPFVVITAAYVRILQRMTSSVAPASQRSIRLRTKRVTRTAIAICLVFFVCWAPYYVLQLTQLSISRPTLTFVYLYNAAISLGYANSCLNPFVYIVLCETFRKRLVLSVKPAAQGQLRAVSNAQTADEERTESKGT

Row | SMILES | Ki
1 | CN1CCC2(CC1)CN(C(=O)Nc1ccc(F)c(Cl)c1)c1cccc(-c3cccc(C#N)c3)c12 [Example 75] | 101 to 5500 nM
2 | COCCN1CCC(CNC(=O)Nc2cc(Cl)cc(Cl)c2)(c2ccc(-c3cccc(CO)c3)cc2)CC1 [Example 93] | 0.2 to 10 nM
3 | N#Cc1cccc(-c2ccc(C3(CNC(=O)Nc4ccc(Cl)c(C(F)(F)F)c4)CCN(CC4CC4)CC3)cc2)c1 [Example 50] | 0.2 to 10 nM
4 | CCCN1CCC(CNC(=O)Nc2cc(C(F)(F)F)ccc2Cl)(c2ccc(-c3cccc(Cl)c3)cc2)CC1 [Example 58] | 101 to 5500 nM
5 | CN1CCC(CNC(=O)Nc2cc(C(F)(F)F)ccc2Cl)(c2ccc(-c3cccc(C#N)c3)cc2)CC1 [Example 69] | 11 to 100 nM
6 | N#Cc1cccc(-c2ccc(C3(CN(CC4CC4)CC4CC4)CCN(C(=O)Nc4cc(Cl)cc(Cl)c4)CC3)cc2)c1 [Example 130] | 101 to 5500 nM
7 | CN(CC1(c2ccc(-c3cccc(C#N)c3)cc2)CCN(CC2CC2)CC1)C(=O)Nc1cc(Cl)cc(Cl)c1 [Example 14, 1-[4-(3′-Cyano-biphenyl-4-yl)-1-cyclopropylmethyl-piperidin-4-ylmethyl]-3-(3,5-dichloro-phenyl)-1-methyl-urea] | 0.2 to 10 nM
8 | O=C(NCC1(c2ccc(-c3cccc(Cl)c3)cc2)CCN(CC2CC2)CC1)Nc1ccc(F)c(Cl)c1 [Example 49] | 0.2 to 10 nM
9 | COCCN1CCC(CNCc2cc(Cl)cc(Cl)c2)(c2ccc(-c3cccc(NC(C)=O)c3)cc2)CC1 [Example 135] | 101 to 5500 nM
10 | CCCN1CCC2(CC1)CN(C(=O)Nc1ccc(Cl)c(Cl)c1)c1ccc(-c3cccc(C#N)c3)cc12 [Example 45] | 101 to 5500 nM
11 | CCN1CCC(CNC(=O)Nc2cc(Cl)cc(Cl)c2)(c2ccc(-c3cccc(OC(F)(F)F)c3)cc2)CC1 [Example 123] | 11 to 100 nM
12 | CN1CCC(CNC(=O)Nc2ccc(Cl)cc2Cl)(c2ccc(-c3cccc(C#N)c3)cc2)CC1 [Example 36] | 11 to 100 nM
13 | CCCN1CCC(CNC(=O)Nc2ccc(Cl)cc2C(F)(F)F)(c2ccc(-c3cccc(C#N)c3)cc2)CC1 [Example 47] | 11 to 100 nM
14 | N#Cc1cccc(-c2ccc(C3(CNC(=O)Nc4ccc(F)c(C(F)(F)F)c4)CCN(CC4CC4)CC3)cc2)c1 [Example 100] | 0.2 to 10 nM
15 | CCCN(CCC)CC1(c2ccc(-c3cccc(C#N)c3)cc2)CCN(C(=O)Nc2cc(Cl)cc(Cl)c2)CC1 [Example 133] | 101 to 5500 nM
16 | COCCN1CCC(CNC(=O)Nc2cc(F)cc(F)c2)(c2ccc(-c3cccc(C#N)c3)cc2)CC1 [Example 105] | 0.2 to 10 nM
17 | COCCN1CCC(CNCc2cc(Cl)cc(Cl)c2)(c2ccc(-c3cccc(C#N)c3)cc2)CC1 [Example 127] | 101 to 5500 nM
18 | CC(C)N1CCC(CNC(=O)Nc2cc(Cl)cc(Cl)c2)(c2ccc(-c3cccc(Cl)c3)cc2)CC1 [Example 83] | 0.2 to 10 nM
19 | O=C(Nc1cc(Cl)cc(Cl)c1)N1CCC(CNCC2CC2)(c2ccc(-c3ccc4c(c3)OCO4)cc2)CC1 [Example 125] | 101 to 5500 nM
20 | CCCN1CCC(CNC(=O)Nc2ccc(Cl)c(C(F)(F)F)c2)(c2ccc(-c3cccc(C#N)c3)cc2)CC1 [Example 71] | 0.2 to 10 nM
21 | O=C(NCC1(c2ccc(-c3cccc(Cl)c3)cc2)CCN(C2CCC2)CC1)Nc1cc(Cl)cc(Cl)c1 [Example 107] | 101 to 5500 nM

Row | SMILES | Ki
22 | CN1CCC(CNC(=O)Nc2cc(F)cc(F)c2)(c2ccc(-c3cccc(Cl)c3)cc2)CC1 [Example 55] | 0.2 to 10 nM
23 | N#Cc1cccc(-c2ccc(C3(CNC(=O)Nc4ccc5c(c4)OCO5)CCN(CC4CC4)CC3)cc2)c1 [Example 98] | 11 to 100 nM
24 | CN(C)S(=O)(=O)N1CCC(CNC(=O)Nc2cc(Cl)cc(Cl)c2)(c2ccc(-c3cccc(C#N)c3)cc2)CC1 [Example 31] | 11 to 100 nM
25 | O=C(NCC1(c2ccc(-c3cccc(Cl)c3)cc2)CCN(CC2CC2)CC1)Nc1cc(C(F)(F)F)ccc1Cl [Example 73] | 101 to 5500 nM
26 | Cc1ccc(C2(CNC(=O)Nc3cc(Cl)cc(Cl)c3)CCN(CC3CC3)CC2)cc1 [Example 25] | 101 to 5500 nM
27 | COCCN1CCC(CN(C)C(=O)Nc2cc(Cl)cc(Cl)c2)(c2ccc(-c3cccc(C#N)c3)cc2)CC1 [Example 88] | 0.2 to 10 nM
28 | CN1CCC(CNC(=O)Nc2ccc(F)cc2F)(c2ccc(-c3cccc(C#N)c3)cc2)CC1 [Example 9, 1-[4-(3′-Cyano-biphenyl-4-yl)-1-methyl-piperidin-4-ylmethyl]-3-(2,4-difluoro-phenyl)-urea] | 0.2 to 10 nM
29 | CN1CCC2(CC1)CN(C(=O)Nc1cc(Cl)cc(Cl)c1)c1ccc(-c3cccc(C#N)c3)cc12 [Example 37] | 11 to 100 nM
30 | CCCN1CCC(CNC(=O)Nc2ccc(Cl)cc2C(F)(F)F)(c2ccc(-c3cccc(Cl)c3)cc2)CC1 [Example 52] | 101 to 5500 nM
31 | CC(C)N1CCC(CNC(=O)Nc2cc(Cl)cc(Cl)c2)(c2ccc(-c3ccc4c(c3)OCO4)cc2)CC1 [Example 82] | 0.2 to 10 nM
32 | CN1CCC(CN2CCN(c3ccc(F)c(F)c3)C2=O)(c2ccc(-c3cccc(C#N)c3)cc2)CC1 [Example 13] | 11 to 100 nM
33 | O=C(NCC1(c2ccc(-c3cccc(Cl)c3)cc2)CCN(C2CCOCC2)CC1)Nc1cc(Cl)cc(Cl)c1 [Example 114] | 101 to 5500 nM
34 | O=C(NCC1(c2ccc(-c3cccnc3)cc2)CCN(C2CCCC2)CC1)Nc1cc(Cl)cc(Cl)c1 [Example 20] | 0.2 to 10 nM
35 | Cc1ccc(C2(CNC(=O)Nc3cc(Cl)cc(Cl)c3)CCNCC2)cc1 [Example 23] | 101 to 5500 nM
36 | COCCN1CCC(CNC(=O)Nc2cc(Cl)cc(Cl)c2)(c2ccc(-c3ccc4c(c3)OCO4)cc2)CC1 [Example 33] | 11 to 100 nM
37 | CN1CCC(CNC(=O)Nc2cc(Cl)cc(Cl)c2)(c2ccc(-c3ccc4c(c3)OCO4)cc2)CC1 [Example 43] | 0.2 to 10 nM
38 | COc1ccc(-c2ccc(C3(CNC(=O)Nc4cc(Cl)cc(Cl)c4)CCN(C)CC3)cc2)cn1 [Example 44] | 11 to 100 nM
39 | COCCN1CCC(CNC(=O)Nc2ccc(F)c(F)c2)(c2ccc(-c3cccc(C#N)c3)cc2)CC1 [Example 91] | 0.2 to 10 nM
40 | CN1CCC(CNC(=O)c2cc(Cl)cc(Cl)c2)(c2ccc(-c3cccc(Cl)c3)cc2)CC1 [Example 72] | 101 to 5500 nM
41 | N#Cc1cccc(-c2ccc(C3(CNC(=O)Nc4cc(F)cc(F)c4)CCN(CC4CC4)CC3)cc2)c1 [Example 96] | 0.2 to 10 nM
42 | CC(=O)Nc1cccc(-c2ccc(C3(CNC(=O)Nc4cc(Cl)cc(Cl)c4)CCN(C(C)C)CC3)cc2)c1 [Example 79] | 0.2 to 10 nM
